Laboratory results: patent US4791133A, “Phenylene, furyl, and thienyl leukotriene B4 analogues” (G. D. Searle & Co., priority 1987, dated 1988)
pIC50: −log10 of the molar value. Several values for one entry are separate records, joined by “and”; a condition that tells them apart may be missing. Equal entries are not always repeated. Structures can show the parent of a compound that is named as a salt.

Legend:
[1] = target: T1, LTB4 receptors (Homo sapiens, UniProt Q15722); experiment: LTB4 Receptor Binding Assay ((3H) LTB4, human neutrophils); conditions: 0.6 nM (3H) LTB4, human neutrophils; for pIC50: 0° C., 45 minutes, pH 7.4, read-out: Inhibition of Receptor Binding of LTB4 IC50
T1 construct: neutrophils were purified from venous blood of normal human donors; endogenous in cells; host or cells: neutrophils purified from venous blood of normal human donors (purity ≥95%)
T1 sequence (Q15722 whole entry): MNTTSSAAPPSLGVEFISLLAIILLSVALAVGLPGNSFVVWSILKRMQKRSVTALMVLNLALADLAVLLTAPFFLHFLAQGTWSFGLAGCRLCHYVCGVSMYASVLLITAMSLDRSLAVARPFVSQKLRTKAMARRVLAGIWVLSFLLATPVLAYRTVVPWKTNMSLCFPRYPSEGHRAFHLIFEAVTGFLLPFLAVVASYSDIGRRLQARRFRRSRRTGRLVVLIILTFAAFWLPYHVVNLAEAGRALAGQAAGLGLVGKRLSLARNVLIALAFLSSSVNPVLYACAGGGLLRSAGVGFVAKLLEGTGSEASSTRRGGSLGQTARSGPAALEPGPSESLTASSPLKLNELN
Excerpt: (§1) For use in both the "LTB4 receptor Binding Assay" and the "Human Neutrophil Degranulation Assay", neutrophils were purified from venous blood of normal human donors using standard techniques of dextran sedimentation, centrifugation on Histopaque® (density solution) and hypotonic lysis of erythrocytes (Boyum, A., Isolation of Leukocytes From Human Blood: Further Observations. Scand. J. Lab. Clin. Inves. 21 (Suppl. 97): 31, 1968). The purity of isolated neutrophils was ≥95%.
Neutrophils (4-6×10^6) in 1 ml of Hanks' balanced salt solution containing 10 mM Hepes Buffer (HBSS), pH 7.4 and 30 μM nordihydroguaiaretic acid were incubated with 0.6 nM (^3 H) LTB4 in the presence or absence of test compounds. The incubation was carried out at 0° C. for 45 minutes and terminated by adding 5 ml of ice-cold HBSS followed by rapid filtration of incubation mixture under vacuum through GF/C glass fiber filters. The filters were further washed with 10 ml HBSS and their radioactivity was determined. Specific binding was defined as the difference between total binding and nonspecific binding which was not displaced by 10^-7 M unlabeled LTB4.
The inhibition of specific binding was determined for representative compounds of this invention, and the corresponding IC50 values calculated (Table 1). An IC50 is the concentration of the compound of interest which will inhibit the binding of LTB4 by 50% of the LTB4 receptors. For example, for the compound of Example 7, the IC50 was determined to be approximately 5 μM.

[2] = tested on: LTB4 induced neutrophil degranulation; experiment: Human Neutrophil Degranulation Assay (LTB4 induced myeloperoxidase release); type: cell-based; conditions: LTB4 5×10^-8 M, cytochalasin B, human neutrophils, 7 minutes preincubation with compound, read-out: Inhibition of LTB4 Induced Neutrophil Degranulation IC50
Excerpt: as §1
LTB4 induced neutrophil degranulation was determined by measuring the release of myeloperoxidase activity into the incubation medium. Neutrophils (3×10^6) in 1 ml HBSS solution was preincubated with cytochalasin B(5 μg) at 37° C. for 5 minutes, followed by preincubation with test compounds for 7 minutes. Neutrophils were then incubated for 2 to 20 minutes with either LTB4 (5×10^-8 M) or the chemotactic peptide f-met-leu-phe ([…]) to induce degranulation. Following incubation, samples were centrifuged and myleoperoxidase was extracted from the cell pellets by sonication in phosphate buffer containing 0.4% Triton X-100. Triton X-100 was also added to the supernatents to a concentration of 0.4%. The supernatants and the pellet extracts were then assayed spectrophotometrically for myeloperoxide activity by determining the rate of decomposition of H2 O2 with o-dianisidine as hydrogen donor as described by Renlund, D. G., MacFarlane, J. L., Christensen, R. D., Lynch, R. E., and Rothstein, G., A Quantitative And Sensitive Method For Measurement Of Myeloperoxidose, Clinical Research 28: 75A, 1980). Myeloperoxidase activity released into the supernatant was expressed as the percent of the average total activity (pellet plus supernatant).
The inhibition of LTB4 induced neutrophil degranulation was determined for representative compounds of this invention and their corresponding IC50 values were calculated (Table 1). The concentration of a compound which inhibited LTB4 induced neutrophil degranulation by 50% was determined to be its IC50 value.

Compound | pIC50 [1] | pIC50 [2] | inhibition at 10 µM ([1]; at 10μM) [%]
CCCCCCCCC(O)c1ccc(/C=C\C(O)CCCC(=O)O)cc1 (stereo not shown) [Example 21, 7-[4-(1-hydroxynonyl)phenyl]-5-hydroxy-6Z-heptenoic acid, lithium salt] | 5.70 | 6.00 | 
CCCCCCCCC(O)c1ccc(C#CC(O)CCCC(=O)O)s1 (stereo not shown) [Example 22, 7-[2-[5-(1-hydroxynonyl)]thienyl-5-hydroxy-6Z-heptynoic acid, lithium salt] |  | 5.06 | 20
CCCCCCCCC(O)c1ccc(/C=C\C(O)CCCC(=O)O)s1 (stereo not shown) [Example 23, 7-[2-[5-(1-hydroxynonyl)]thienyl-5-hydroxy-6Z-heptenoic acid, lithium salt] | 5.30 | 5.74 | 

The next compounds have a higher pIC50 [2] than those just listed; values first:

pIC50 [1] | pIC50 [2] | inhibition at 10 µM ([1]; at 10μM) [%] | Compound
~5.30 and 5.30 | 6.15 |  | CCCCC/C=C\CC(O)c1ccc(/C=C\[C@@H](O)CCCC(=O)O)cc1 (stereo partly drawn) [Example 7, 7[4-(1-hydroxy-3Z-nonenyl)phenyl]-5S-hydroxy-6Z-heptenoic acid, lithium salt]
6.00 | 6.19 |  | CCCCCCCCC(O)c1ccc(/C=C\C(O)CCCC(=O)OC)cc1 (stereo not shown) [Example 12, Methyl 7-[4-(1-hydroxynonyl)phenyl]-5-hydroxy-6Z-heptenoate]
